The structures appear in SMILES notation.

Human factor D, sequence (P00746 26-253): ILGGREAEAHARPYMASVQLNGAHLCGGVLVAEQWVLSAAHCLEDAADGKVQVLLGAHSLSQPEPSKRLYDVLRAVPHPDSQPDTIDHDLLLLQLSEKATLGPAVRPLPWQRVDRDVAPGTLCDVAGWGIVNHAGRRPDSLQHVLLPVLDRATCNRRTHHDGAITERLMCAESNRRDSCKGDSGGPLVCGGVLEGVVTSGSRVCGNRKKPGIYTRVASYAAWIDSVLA

The target in this test is Human factor D (Homo sapiens (Human), UniProt P00746). Briefly: Human Factor D Assay. It counts as biochemical. The note with it: human factor D 80 nM, substrate Z-L-Lys-SBzl, DTNB. The procedure, abridged:
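Serum-purified factor D (80 nM final) preincubated 5 min at room temperature with compound in 50 mM Tris, 1M NaCl, pH 7.5. Z-L-Lys-SBzl and DTNB added at 100 μM each; OD405 followed kinetically over 30 min. IC50 by non-linear regression of % inhibition.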
In turn, `COc1ncc(-c2ccc3c(c2)c(C(C)=O)cn3CC(=O)N2[C@@H]3C[C@@H]3C[C@H]2C(=O)Nc2cccc(-c3ccccc3Cl)c2F)cn1` [Compound 80, (1R,3S,5R)-2-(2-(3-acetyl-5-(2-methoxypyrimidin-5-yl)-1H-indol-1-yl)acetyl)-N-(2′-chloro-2-fluorobiphenyl-3-yl)-2-azabicyclo[3.1.0] hexane-3-carboxamide] came in with a concentration for half-maximal inhibition (IC50) of less than 1 µM. For the compound `COc1ncc(-c2ccc3c(c2)c(C(C)=O)cn3CC(=O)N2[C@@H]3C[C@@H]3C[C@H]2C(=O)Nc2cccc(Br)n2)cn1` [Compound 81, (1R,3S,5R)-2-(2-(3-acetyl-5-(2-methoxypyrimidin-5-yl)-1H-indol-1-yl)acetyl)-N-(6-bromopyridin-2-yl)-2-azabicyclo[3.1.0] hexane-3-carboxamide], the IC50 is less than 1 µM. As for `CC(=O)c1cn(CC(=O)N2C[C@H](F)C[C@H]2C(=O)Nc2cccc(Br)n2)c2ccc(-c3cnc(C#N)nc3)cc12` [Compound 82, (2S,4R)-1-(2-(3-acetyl-5-(2-cyanopyrimidin-5-yl)-1H-indol-1-yl)acetyl)-N-(6-bromopyridin-2-yl)-4-fluoropyrrolidine-2-carboxamide], the figure is less than 1 µM; as for `CC(=O)c1cn(CC(=O)N2C[C@H](F)C[C@H]2C(=O)Nc2cccc(Br)n2)c2ccc(-c3cnc(F)nc3)cc12` [Compound 83, (2S,4R)-1-(2-(3-acetyl-5-(2-fluoropyrimidin-5-yl)-1H-indol-1-yl)acetyl)-N-(6-bromopyridin-2-yl)-4-fluoropyrrolidine-2-carboxamide], less than 1 µM; as for `CC(=O)c1cn(CC(=O)N2C[C@H](F)C[C@H]2C(=O)Nc2cccc(Br)n2)c2ccc(-c3cnc(C)nc3)cc12` [Compound 84, (2S,4R)-1-(2-(3-acetyl-5-(2-methylpyrimidin-5-yl)-1H-indol-1-yl)acetyl)-N-(6-bromopyridin-2-yl)-4-fluoropyrrolidine-2-carboxamide], less than 1 µM. With `CC(=O)c1cn(CC(=O)N2C[C@H](F)C[C@H]2C(=O)Nc2ccc(CN)cc2)c2ccc(-c3ccnnc3)cc12` [Compound 85, (2S,4R)-1-(2-(3-acetyl-5-(pyridazin-4-yl)-1H-indol-1-yl)acetyl)-N-(4-(aminomethyl)phenyl)-4-fluoropyrrolidine-2-carboxamide] the figure was more than 10 µM; with `NC(=O)c1nn(CC(=O)N2C[C@H](F)C[C@H]2C(=O)Nc2ccc3cn[nH]c3c2)c2ccc(-c3ccnnc3)cc12` [Compound 86, 1-(2-((2S,4R)-2-(1H-indazol-6-ylcarbamoyl)-4-fluoropyrrolidin-1-yl)-2-oxoethyl)-5-(pyridazin-4-yl)-1H-indazole-3-carboxamide], more than 10 µM; with `CC(=O)c1cn(CC(=O)N2C[C@H](F)C[C@H]2C(=O)Nc2cncc(Cl)n2)c2ccc(-c3ccnnc3)cc12` [Compound 88, (2S,4R)-1-(2-(3-acetyl-5-(pyridazin-4-yl)-1H-indol-1-yl)acetyl)-N-(6-chloropyrazin-2-yl)-4-fluoropyrrolidine-2-carboxamide], less than 1 µM. With `NC(=O)c1nn(CC(=O)N2C[C@H](F)C[C@H]2C(=O)Nc2cncc(Cl)n2)c2ccc(-c3ccnnc3)cc12` [Compound 89, 1-(2-((2S,4R)-2-(6-chloropyrazin-2-ylcarbamoyl)-4-fluoropyrrolidin-1-yl)-2-oxoethyl)-5-(pyridazin-4-yl)-1H-indazole-3-carboxamide] the figure was less than 1 µM; with `NC(=O)c1nn(CC(=O)N2C[C@H](F)C[C@H]2C(=O)Nc2ccc(F)c(-c3nnc4n3CCCCC4)c2)c2ccc(-c3ccnnc3)cc12` [Compound 91, 1-(2-((2S,4R)-4-fluoro-2-(4-fluoro-3-(6,7,8,9-tetrahydro-5H-[1,2,4]triazolo[4,3-a]azepin-3-yl)phenylcarbamoyl)pyrrolidin-1-yl)-2-oxoethyl)-5-(pyridazin-4-yl)-1H-indazole-3-carboxamide], more than 10 µM.
